These are literature values, as cited in patent publication US20210353574A1, “Softgels with solid or gel-like polymeric fill matrix” (Bayer HealthCare LLC, priority 2018, published 2021).

The conditions of this data set: used as an analgesic.

On to `COc1ccc2cc([C@H](C)C(=O)O)ccc2c1` [Naproxen], for which the minimum effective dose is recorded as 200 mg.

On to `COc1ccc2cc([C@H](C)C(=O)O)ccc2c1` [naproxen sodium], for which the minimum effective dose was 220 mg.
